According to patent publication US7820628B2, “Tumor lesion regression and conversion in situ into autologous tumor vaccines by compositions that result in anti-Gal antibody binding” (University of Massachusetts Medical School, priority 2005, dated 2010):

Test system: human natural anti-Gal
Assay: TLC immunostaining of red blood cell glycolipids with human natural anti-Gal
Format: binding
Settings: glycolipids on thin layer chromatography plates
Source text: A rich source for α-gal glycolipids is rabbit red blood cells. The two major glycosphingolipids (GSL), i.e. glycolipids with ceramide tail, in rabbit red blood cell membranes are ceramide (Cer) trihexoside (CTH, with 3 sugars [hexoses], present also in human red blood cells) with the structure Galα1-4Galβ1-4Glc-Cer and ceramide pentahexoside (CPH, with 5 sugars [hexoses]) with α-gal epitopes as terminal part of the CPH structure of Galα1-3Galβ1-4GlcNAcβ1-3Galβ1-4Glc-Cer (Eto T, Iichikawa Y, Nishimura K, Ando S, Yamakawa T J. Biochem. (Tokyo) 1968; 64: 205-13, and Stellner K, Saito H, Hakomori S. Arch. Biochem. Biophys. 1973; 133: 464-72) (See FIG. 1 and FIG. 6A, lane 1).
The use of α-gal glycolipids in the clinical setting may require much more material than that isolated from rabbit red blood cell membranes. The logistic limitations in supplies of large amounts of rabbit red blood cells can be overcome by the use of bovine red blood cells (i.e., for example, cow) instead of rabbit red blood cells since there is no practical limit to the amounts of bovine blood which can be supplied for preparation of α-gal glycolipids. […]

Galα1-3Galβ1-4GlcNAcβ1-3Galβ1-4Glc-Cer [CPH]
anti-Gal binding on TLC immunostaining: binding of the antibody to CPH
